Source: PMC9050674, “Structure-based inhibitor design for reshaping bacterial morphology” (Communications Biology, 2022)
Values joined by “and” are separate entries in the source; they are usually repeats but may differ in a detail not shown here. Identical values can stand only once.

Key:
Pgp3 WT = Pgp3 WT (Campylobacter jejuni, UniProt Q0P921); experiment: Isothermal-titration calorimetry (ITC) with Pgp3 WT; type: binding, C. jejuni
Description: (§1) The gene encoding the amino-acid sequence of Glu21–Gln273 of Pgp3 from C. jejuni (strain ATCC 33560) was cloned into the expression vector pET-21a (Novagen) producing the recombinant wild-type Pgp3 protein with the C-terminal His6-tag ([…]). The protein expression and purification were conducted according to previously described methods with exception. The HiTrap chelating HP (GE Healthcare) column was washed with the lysis buffer containing 60 mM imidazole and the protein was eluted with a linear gradient from 100 to 500 mM imidazole. The protein was further purified by gel filtration on a HiLoad 16/60 Superdex 200 prep-grade column (GE Healthcare), which was previously equilibrated with 20 mM Tris-HCl pH 8.0 and 200 mM NaCl. The fractions containing the Pgp3 protein were pooled and concentrated to 15 mg mL^−1 for crystallization. The variants of Pgp3 (S169A, R195A, H216A, and H247A) were generated by site-directed mutagenesis using primer sets in Supplementary Table 1 and were purified as described for the WT Pgp3.
(§2) Using a micro-syringe, 2.5 μL of each inhibitor (2.25 mM) was added at intervals of 200 s to the Pgp3 solution in the cell with gentle stirring (125 rpm). The same ITC condition was applied to evaluate the KD values of BMK-S101 for each Pgp3 variant. All data were fitted to the single-binding-site model. Fitted curves were generated using GraphPad Prism 7. Data are mean ± SEM from triplicate experiments and the ITC thermograms are representative of triplicate experiments.

C. jejuni (ATCC 33560) = experiment: Drug accumulation assay (LC-MS); conditions: for µM (concentration in LC-MS sample): single replicates (First, Second, Third), total volume 200 (r6-r19) or 100 (r23-r30); for µM (concentration in LC-MS sample) / nmol/1011 CFUs / Total nmol: source data Fig. 5b; for nmol/1011 CFUs / Total nmol: single replicates; for Total nmol: total volume 200 or 100
Description: The accumulation assay was adapted from two different methods[42],[43]. […] The culture was grown overnight at 42 °C under the micro-aerobic condition. The cells were harvested at 6000 g for 15 min and washed with 1 × PBS, followed by resuspension in pre-warmed 1 × PBS to ~10^10 CFU/mL. The cell suspension (1.2 mL) was dispensed into a 24-well plate. Each compound to be examined was added into each well (final concentration = 100 μM). […] After incubation with shaking at 37 °C for 20 min, OD600 of each sample was measured, and the cells were harvested at 6000 g for 10 min at 4 °C. The pellets were resuspended in 250 μL of water, followed by three cycles of Freeze-Thaw with a dry ice/ethanol bath and a 37 °C-heating block in order to extract the compounds from C. jejuni. The cells were pelleted at 13,000 g for 5 min at room temperature. The supernatants (220 μL) were transferred to new tubes. The pellets were resuspended in 100 μL of methanol with vigorous vortexing for 1 min, followed by pelleting as before. The supernatants (100 μL) were combined with the solutions previously collected. The residual cell debris were removed at 20,000 g for 15 min at room temperature. The supernatants (300 μL) were dried with Genevac™ miVac Centrifugal Concentrator at room temperature for 5 h. Finally, the samples were resuspended with appropriate solvents and analyzed by LC-MS.
The suspension was centrifuged and the supernatant was analyzed by LC-MS. LC-MS systems consists of a Bruker impact II ultra-high resolution Qq-time-of-flight mass spectrometer using Hystar 5.0 SR1 software with a Waters Acquity UPLC H-Class system equipped with a quaternary solvent manager, a sample manager-FTN, and a photodiode array detector. The Bruker electrospray ionization source was operated in the positive ion mode, except for BMK-S301 (in the negative ion mode). […] A four-step 10-min LC gradient was as follows: 3 min at 98:2; 3 min to 85:15; 0.1 min to 98:2; 3.9 min at 98:2 for BMK-S101, -S203, and -S301. The ratio of the mobile phases (A = 0.1% formic acid in water, B = 0.1% formic acid in ACN) is given as A:B in LC gradients. […] The quantification was done by integrating the peak areas from extracted-ion chromatograms of corresponding m/z values of each compound.

Pgp3 = Pgp3 (Campylobacter jejuni, UniProt Q0P921); experiment: biochemical; design: species or system C. jejuni
Description: Because DABCYL/FITC is a typical FRET quencher–fluorophore pair, an increase in fluorescent signals can be directly detected when it is processed by Pgp3 (Tang et al., 2013). The kinetic parameters (kcat = 0.0209 ± 0.0006 s^−1 and KM = 6.6 ± 0.7 µM) for the substrate were obtained by fitting the data to the Michaelis-Menten equation (Supplementary Fig. 8a).
The enzymatic assay for Pgp3 activity was determined using a fluorescein isothiocyanate (FITC) and 4′-([4′-(Dimethylamino)phenyl]-azo)-benzoic acid (DABCYL) pair for FRET. […] The excitation and emission spectra were set at 495 nm and 525 nm, respectively. Pgp3 (0.1 μM) in 20 mM HEPES pH 7.5, 200 mM NaCl, and 0.4 μM of zinc was used in this assay. The reaction was initiated by adding 3 μL of 0.015–2 mM substrate (final 1.56–200 μM) in the total volume of 30 μL of the reaction mixture. Initial velocities were calculated using slopes of fluorescence signal intensity in 3 min after the initiation of the reaction. In order to elucidate the inhibition mechanism of BMK-S301, initial velocities with various concentrations of substrates were measured in the presence of 40 μM BMK-S301. […] The same method was used for the determination of the IC50 values for inhibitors. Inhibitors in each concentration were pre-incubated with 0.1 μM of Pgp3 for 1 h on ice, and initial velocities were determined for 0.1, 10, 50, 100, 200, 500, and 1000 μM of each inhibitor in reaction with 10 μM of substrate. The IC50 values were calculated using GraphPad Prism 7.

C. jejuni ATCC 33560 WT = experiment: Cell morphology change monitored by TEM; type: cell-based, Campylobacter jejuni; conditions: 37 °C, 24 h; for minimum concentration causing morphological changes (helical to curved-rod): KL-L9P used for improved permeability
Source text: Next, we investigated whether our inhibitors could transform C. jejuni from the helical- to curved-rod morphology on exposure to the inhibitors (Fig. 5). […] To investigate the effect of inhibitors on the morphology of C. jejuni cells, we exposed the cells to the inhibitors and checked whether the morphology could be altered.
Cell-morphology change of C. jejuni upon inhibitor treatment was monitored, as described previously with modifications. Briefly, overnight cultures of C. jejuni were harvested from MH agar plates and suspended in MH broth to approximately 1 × 10^6 colony-forming unit (CFU)/mL. A total of 500 μL of the diluted bacterial culture was added into each well of a 24-well plate with 5 μL of two-fold serial dilutions of inhibitor. For the control strain with no inhibitor, the same volume of dilution buffer (20 mM Tris-HCl pH 8.0 and 200 mM NaCl) was used. The plate was incubated under a micro-aerobic condition at 37 °C for 24 h in the static condition. After incubation, 10 μL of the bacterial cultures was placed on formvar/carbon-coated copper grids (200 mesh) and negatively stained with 2% uranyl acetate for 2 s.

Pgp3 H247A variant = experiment: ITC with inactive Pgp3 H247A variant; type: binding, C. jejuni; conditions: ITC at 298 K, Pgp3 H247A variant (used to prevent turnover of substrate)
Description: as §1
as §2, with “Data are mean ± SEM from triplicate experiments and the ITC thermograms are representative of triplicate experiments.” left out

Pgp3 S169A = biological target: T1, Pgp3 S169A (Campylobacter jejuni, UniProt Q0P921, S169A); experiment: ITC with Pgp3 S169A variant; type: binding, C. jejuni
T1 sequence (Q0P921 21-273 S169A): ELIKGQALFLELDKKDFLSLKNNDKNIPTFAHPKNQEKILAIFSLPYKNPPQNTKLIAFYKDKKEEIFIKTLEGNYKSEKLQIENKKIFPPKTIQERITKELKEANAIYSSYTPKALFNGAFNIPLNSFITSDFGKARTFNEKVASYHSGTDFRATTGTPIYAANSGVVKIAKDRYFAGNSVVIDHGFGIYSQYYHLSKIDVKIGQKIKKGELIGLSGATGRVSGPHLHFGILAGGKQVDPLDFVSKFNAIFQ
Description: (§3) To evaluate the contributions of the three residues (Ser169, Arg195, and His216) to binding of BMK-S101, they were substituted to Ala, and the effect of each mutation was evaluated using ITC (Fig. 2d and Supplementary Fig. 1).
as §1, with “Pgp3. […]” for “Pgp3.”

Pgp3 R195A = biological target: T2, Pgp3 R195A (Campylobacter jejuni, UniProt Q0P921, R195A); experiment: ITC with Pgp3 R195A variant; type: binding, C. jejuni
T2 sequence (Q0P921 21-273 R195A): T1 sequence (Q0P921 21-273 S169A)
Description: as §3
as §1, with “Pgp3. […]” for “Pgp3.”

Pgp3 H216A = biological target: T3, Pgp3 H216A (Campylobacter jejuni, UniProt Q0P921, H216A); experiment: ITC with Pgp3 H216A variant; type: binding, C. jejuni
T3 sequence (Q0P921 21-273 H216A): T1 sequence (Q0P921 21-273 S169A)
Description: as §3
as §1, with “Pgp3. […]” for “Pgp3.”

[1] = biological target: Pgp3 H247A variant (peptidoglycan peptidase 3, Campylobacter jejuni, Glu21-Gln273) (C. jejuni (strain ATCC 33560)); experiment: ITC
[2] = substrate turnover by Pgp3, Michaelis-Menten fit

For `CC(=O)N[C@@H](CCN(CC(=O)O)Cc1ccccc1)C(=O)N[C@H](C)C(=O)NO` [BMK-S201], the Kd (Pgp3 WT) was 1.3 ± 0.1 µM, the “µM (concentration in LC-MS sample)” value (C. jejuni (ATCC 33560)) was 0.024 µM and 0.040 µM and 0.056 µM and the “nmol/1011 CFUs” value (C. jejuni (ATCC 33560)) was 0.60 nmol/1011 CFUs and 0.97 nmol/1011 CFUs and 1.37 nmol/1011 CFUs. For the same compound, the Total nmol (C. jejuni (ATCC 33560)) was 0.0048 nmol and 0.0079 nmol and 0.0112 nmol.

In the case of `NS(=O)(=O)c1ccc(-c2ccc(CC(=O)NO)cc2)cc1` [BMK-S303], the Kd (Pgp3 WT) is reported as 1.4 ± 0.4 µM, the IC50 (Pgp3) is reported as 22.3 ± 1.5 µM and the “minimum concentration causing morphological changes (helical to curved-rod)” value (C. jejuni ATCC 33560 WT) is reported as 400 μM.

For “FITC-L-Ala^1-D-Glu^2-mDAP^3-D-Ala^4-L-Lys^5-DABCYL [FRET substrate, reference compound]”, the Km (Pgp3; [2]) was 6.6 ± 0.7 µM and the kcat (Pgp3; [2]) was 0.0209 ± 0.0006 s⁻¹.

For `CC(=O)N[C@@H](CCNCC(=O)O)C(=O)N[C@H](C)C(=O)NO` [BMK-S202], the Kd (Pgp3 WT) was 6.6 ± 0.3 µM and the “minimum concentration causing morphological changes (helical to curved-rod)” value (C. jejuni ATCC 33560 WT) was 25~50 μM.

In the case of `CC(=O)N[C@@H](CCN(CC(=O)O)CC1CCCC1)C(=O)N[C@H](C)C(=O)NO` [BMK-S203], the Kd (Pgp3 WT) is reported as 1.8 ± 0.4 µM, the “minimum concentration causing morphological changes (helical to curved-rod)” value (C. jejuni ATCC 33560 WT) is reported as 25~50 μM and the “intracellular concentration (accumulation)” value (C. jejuni (ATCC 33560); 100 μM compound, 37 °C, 20 min, LC-MS, mean) is reported as 0.3 ± 0.1 nmole/10^11 CFU. For the same compound, the “µM (concentration in LC-MS sample)” value (C. jejuni (ATCC 33560)) was 0.0294 µM and 0.0222 µM and 0.0293 µM, the “nmol/1011 CFUs” value (C. jejuni (ATCC 33560)) was 0.333 nmol/1011 CFUs and 0.240 nmol/1011 CFUs and 0.327 nmol/1011 CFUs and the Total nmol (C. jejuni (ATCC 33560)) was 0.00294 nmol and 0.00222 nmol and 0.00293 nmol.

“Ac-L-Ala^1-γ-D-Glu^2-mDAP^3-D-Ala^4−D-Ala^5 [pentapeptide]” was tested, and the Kd (Pgp3 H247A variant) was 6.8 ± 0.3 µM.

`CC(=O)N[C@@H](CCC[C@@H](NC(C)=O)C(=O)O)C(=O)N[C@H](C)C(=O)NO` [BMK-S101] was tested, and the Kd (Pgp3 WT) was 2.3 ± 0.8 µM, the Kd (Pgp3 S169A) was 28.3 ± 5.8 µM and the Kd (Pgp3 R195A) was 17.8 ± 0.8 µM. For the same compound, the Kd (Pgp3 H216A) was 10.4 ± 2.6 µM, the “concentrations without any detectable changes in the cell shape” value (C. jejuni ATCC 33560 WT) was at most 156 µM and the “minimum concentration causing morphological changes (helical to curved-rod)” value (C. jejuni ATCC 33560 WT) was over 313 μM.

Compound “pentapeptide (Ac-L-Ala1-γ-D-Glu2-mDAP3-D-Ala4-D-Ala5), peptidoglycan stem peptide” has a Kd [1] of 6.8 µM.

In the case of `NS(=O)(=O)c1ccc(CC(=O)NCC(=O)NO)cc1` [BMK-S302], the Kd (Pgp3 WT) is reported as 9.9 ± 1.5 µM, the IC50 (Pgp3) is reported as 244.6 ± 1.4 µM and the “minimum concentration causing morphological changes (helical to curved-rod)” value (C. jejuni ATCC 33560 WT) is reported as 100 μM.
